Measurements as given in patent US20160279187A1, “CALPAIN INHIBITORS FOR IBD AND COLORECTAL CANCER TREATMENT” (UNIVERSITY OF HAWAII, priority 2013, published 2016).
Where a SMILES comes first, the peptide text is derived from it. The star is where a group is joined. Cbz = O=C(OCc1ccccc1)*; CH2F = FC*

Molecular target: T1, M-Calpain activity in CT-26 WT cells (Mus musculus, UniProt O08529)
T1 construct: endogenous in cells; host or cells: CT-26.WT mouse colon cancer cells
T1 sequence (O08529 20-700 limits assumed): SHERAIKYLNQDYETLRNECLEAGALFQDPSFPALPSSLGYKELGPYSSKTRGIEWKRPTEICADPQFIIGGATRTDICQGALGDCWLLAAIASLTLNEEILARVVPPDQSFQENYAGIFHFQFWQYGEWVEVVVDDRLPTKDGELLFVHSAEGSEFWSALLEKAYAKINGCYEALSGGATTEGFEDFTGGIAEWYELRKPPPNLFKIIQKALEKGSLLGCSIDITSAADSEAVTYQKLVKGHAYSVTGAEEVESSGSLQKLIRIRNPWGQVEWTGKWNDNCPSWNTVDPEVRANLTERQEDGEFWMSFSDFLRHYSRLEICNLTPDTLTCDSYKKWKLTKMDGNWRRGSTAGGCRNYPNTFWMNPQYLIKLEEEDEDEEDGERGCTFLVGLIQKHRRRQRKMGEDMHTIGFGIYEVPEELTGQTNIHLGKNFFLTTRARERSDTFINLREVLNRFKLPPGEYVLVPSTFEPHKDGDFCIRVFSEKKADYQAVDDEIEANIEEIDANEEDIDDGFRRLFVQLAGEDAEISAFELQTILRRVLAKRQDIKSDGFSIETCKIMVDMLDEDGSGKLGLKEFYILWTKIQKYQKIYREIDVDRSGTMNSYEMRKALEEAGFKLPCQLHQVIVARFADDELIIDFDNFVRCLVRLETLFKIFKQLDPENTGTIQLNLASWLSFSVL
T1 sequence (O88456 1-268 partner): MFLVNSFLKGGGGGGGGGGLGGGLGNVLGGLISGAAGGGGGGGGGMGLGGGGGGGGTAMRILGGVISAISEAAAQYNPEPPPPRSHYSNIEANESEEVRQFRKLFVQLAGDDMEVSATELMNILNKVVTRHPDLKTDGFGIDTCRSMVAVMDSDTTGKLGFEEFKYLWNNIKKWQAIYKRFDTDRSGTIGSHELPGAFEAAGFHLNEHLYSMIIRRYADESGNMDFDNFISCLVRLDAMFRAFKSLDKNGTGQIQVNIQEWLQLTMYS
Test: Calpain Activity Assay Kit (BioVision), CT-26.WT
Type: cell-based
Settings: vs DMSO, 1 hour
Procedure: Bone marrow derived macrophages (BMDM) were prepared as previously described by methods known to those skilled in the art. On day 5 of culture, 2×10^6 BMDM were seeded in 6-well plates and the following day were primed for 18 h with TNFα (20 ng/mL), followed by 1 h stimulation with E. faecalis (1 μg/mL; ATCC). Stimulation with E. faecalis was conducted in the presence of the zLLY-CH2F calpain-2 inhibitor (20 μg/mL) or DMSO as a control. Media was removed from treated BMDM, centrifuged at 300×g for 5 min and supernatent analyzed using the Cytometric Bead Array Mouse Inflammation Kit (BD Biosciences, San Jose, Calif.). Cytokine data were analyzed using Flowjo software (Ashland, Oreg.) and GraphPad Prism version 4.0 (GraphPad, La Jolla, Calif.). Cell pellets were lysed and analyzed for IκB and NFκB by Western blot as previously described (Miyazaki, T. et al. Journal of Atherosclerosis and Thrombosis 20, 228-237, 2013). […] Each day 4 wells were quantified using Celltiter MTS reagent (Promega) and the resulting signal was used to generate a proliferation curve. Calpain activity was measured using a Calpain activity assay kit (BioVision, Inc., Milpitas, Calif.) as previously described. Colons were harvested on day 4 and calpain activity measured. […]

- M-Calpain activity: reduced
Compound: CC(C)C[C@H](NC(=O)OCc1ccccc1)C(=O)N[C@@H](CC(C)C)C(=O)N[C@@H](Cc1ccc(O)cc1)C(=O)CF [zLLY-CH2F, Z-LLY-CH2F] (Cbz-Leu-Leu-Tyr-CH2F)
